{"source": "patent US9486536B2", "about": "(Immunomedics, Inc., priority 2013, dated 2016)", "key": {"[1]": {"system": "NCI-N87 gastric carcinoma cells", "assay": "cell binding, conjugate vs unconjugated antibody", "parameters": "species or system human", "conditions": "6 molecules of P2PDox per antibody (not shown)"}, "[2]": {"assay": "PK in normal mice, serum antibody by ELISA", "format": "in vivo", "conditions": "drug substitution 6.8 or 3.7 vs unmodified hRS7", "method": "These were analyzed by ELISA for antibody concentration. […] The PK parameters (Cmax, AUC, etc.) were similar."}, "[3]": {"system": "MDA-MB-468 human breast carcinoma xenografts", "assay": "therapy of MDA-MB-468 xenografts in nude mice", "format": "in vivo"}, "[4]": {"system": "BxPC3 human pancreatic carcinoma xenografts", "assay": "therapy of BxPC3 xenografts in nude mice", "format": "in vivo"}, "[5]": {"system": "gastric (NCI-N87), pancreatic (Capan-1), and breast (MDA-MB-468) human cancer cell lines", "assay": "4-day MTS assay, potency of the conjugate", "format": "cell-based", "conditions": "range over NCI-N87, Capan-1 and MDA-MB-468", "method": "Retention of antibody binding was confirmed by cell binding assays comparing binding of the conjugate to unconjugated antibody (Chari, 2008, Acc Chem Res 41:98-107). The potency of the conjugate was tested in a 4-day MTS assay using appropriate target cells."}, "[6]": {"system": "Trop-2-positive human pancreatic adenocarcinoma cell line (BxPC-3)", "assay": "ADCC with PBMCs, effector to target ratio 100:1", "format": "cell-based", "conditions": "33.3 nM", "method": "The ADCC activity of various hRS7-ADC conjugates was determined in comparison to hRS7 IgG (FIG. 17). PBMCs were purified from blood purchased from the Blood Center of New Jersey. A Trop-2-positive human pancreatic adenocarcinoma cell line (BxPC-3) was used as the target cell line with an effector to target ratio of 100:1. ADCC mediated by hRS7 IgG was compared to hRS7-Pro-2-PDox, hRS7-CL2A-SN-38, and the reduced and capped hRS7-NEM. All were used at 33.3 nM."}, "[7]": {"system": "HIV-1IIIB/MuLV infected splenocytes", "assay": "HIV-1/MuLV infected cell challenge in mice", "format": "in vivo", "conditions": "doses of 100-200 μg", "method": "P4/D10-P2PDox is tested in vitro for its efficacy in eliminating HIV-1-infected cells among non-infected cells and in a mouse model by removing HIV-1/MuLV (murine leukemia virus) infected syngeneic cells from the intraperitoneal cavity.\nA human T-cell line, CEM-1B, with a genetically integrated MuLV genome is infected with HIV-1IIIB, which leads to the production of pseudoviruses with the HIV-1 genome and the MuLV envelope (Adang et al., PNAS USA 1999, 96:12749-753; Hinkula et al., Cells Tissues Organs 2004, 177:169-184). These virus supernatants are used to infect splenocytes from C57B1/6×DBA F1 K^b/d mice transgenic for HLA-A201. Isogenic mice are challenged with HIV-1IIIB/MuLV infected splenocytes i.p. and are immediately given conjugated antibodies or free antibodies i.p. Ten days after challenge, mice are sacrificed and peritoneal cells collected. Peritoneal cells are pelleted and added to 1×10^6 HIV susceptible Jurkat T-cells or human PBMC grown in 24-well plates. From these secondary cultures, supernatant is removed and fresh medium added every 3-4 days. The amount of infectious HIV recovered in the supernatant is measured for 3 weeks by p24 ELISA.\nTo test the efficacy of P4/D10-P2PDox in vivo, mice are given isogeneic HIV/MuLV-infected cells together with conjugates intraperitoneally."}, "[8]": {"assay": "tolerability / toxicity of hRS7-P2PDox in mice", "method": "Tumor size was determined by caliper measurements of length (L) and width (W) with tumor volume calculated as (L×W^2)/2. Tumors were measured and mice weighed twice a week. Mice were euthanized if their tumors reached >1 cm^3 in size, lost greater than 15% of their starting body weight, or otherwise became moribund. Statistical analysis for the tumor growth data was based on area under the curve (AUC) and survival time. Profiles of individual tumor growth were obtained through linear curve modeling. An f-test was employed to determine equality of variance between groups prior to statistical analysis of growth curves. A two-tailed t-test was used to assess statistical significance between all the various treatment groups and non-specific controls. For the saline control analysis a one-tailed t-test was used to assess significance. Survival studies were analyzed using Kaplan-Meier plots (log-rank analysis), using the Prism GraphPad Software (v4.03) software package (Advanced Graphics Software, Inc.; Encinitas, Calif.). All doses in preclinical experiments are expressed in antibody amounts. In terms of drug, 100 μg of antibody (5 mg/kg) in a 20-g mouse, for example, carries 1.4 μg-2.8 μg ([…]) of P2PDox equivalent dose when using an ADC with 3-6 drugs/IgG.\nUsing this dosing regimen, we examined the therapeutic effect of hRS7-P2PDox in 2 human tumor xenograft models, Capan-1 (pancreatic cancer) and NCI-N87 (gastric cancer). Therapy began 7 days after tumor transplantation in nude mice.\nConjugates were prepared and evaluated with mean drug/MAb substitution ratios (MSRs) of ˜6:1 and ˜3:1. Groups of normal mice (n=5) were administered, i.v., single doses of unmodified hRS7 or hRS7-P2PDox with drug substitution of 6.8 or 3.7 (same protein dose), and serum samples were collected at 30 min, 4 h, 24 h, 72 h, and 168 h post-injection. These were analyzed by ELISA for antibody concentration.\nAnti-TROP-2 antibody conjugate, hRS7-P2PDox, was evaluated in nude mice bearing NCI-N87 human gastric cancer xenografts by administering a single bolus protein dose of 9 mg/kg, 6.75 mg/kg, 4.5 mg/kg, 2.25 mg/kg, or 1 mg/kg. The therapy was started when the mean tumor volume (mTV) was 0.256 cm^3."}, "[9]": {"system": "MDA-MB-468, AG S, NCI-N87 and Capan-1 solid tumor cell lines", "assay": "cytotoxicity of P2PDox-mAb conjugates to target cells", "format": "cell-based, human", "conditions": "not shown", "excerpt": "The cytotoxicity of P2PDox-mAb conjugates to target cells was examined. hRS7-P2PDox and hMN-15-P2PDox were cytotoxic to MDA-MB-468, AG S, NCI-N87 and Capan-1 solid tumor cell lines (not shown). hMN-14-P2PDox was cytotoxic to Capan-1, BxPC-3 and AsPC-1 human pancreatic tumor lines and AGS, NCI-N87 and LS147T human gastric and colonic tumor lines (not shown). hLL2-P2PDOx was cytotoxic to Daudi, Raji, Ramos and JVM-3 hematopoietic tumor lines (not shown). IC50 values for the conjugates were in the nanomolar concentration range (not shown)."}}}
{"substance": "hRS7-P2PDox", "values": [{"measurement": "binding of the antibody moiety vs unconjugated hRS7", "setting": "[1]", "result": "No significant difference in binding"}, {"measurement": "PK parameters (Cmax, AUC, etc.)", "setting": "[2]", "result": "similar"}, {"measurement": "serum concentrations at various times", "setting": "[2]; single i.v. dose, 30 min to 168 h", "result": "no significant differences in serum concentrations"}, {"measurement": "antitumor effects", "setting": "[3]; 2.25 mg/kg protein dose twice weekly×2 weeks", "result": "specific and significant antitumor effects"}, {"measurement": "inhibition of growth compared with hRS7-SN-38", "setting": "[3]; not shown", "result": "slightly more effective"}, {"measurement": "inhibition of growth compared with hRS7-SN-38", "setting": "[4]; PxPC-3 pancreatic cancer (not shown)", "result": "substantially more effective"}, {"measurement": "antitumor effects", "setting": "[4]; second pancreatic cancer xenograft, 2.25 mg/kg protein dose twice weekly×2 weeks", "result": "specific and significant antitumor effects"}, {"measurement": "IC50", "setting": "[5]", "result": "0.35 to 1.09", "unit": "nM"}, {"measurement": "specific lysis (ADCC)", "setting": "[6]", "result": "not significantly different"}, {"measurement": "protection by control conjugates", "setting": "[7]", "result": "None of the P2PDox-conjugated control antibodies (hLL1 or hRS7) provide any protection"}, {"measurement": "toxicity of the three dosage schedules", "setting": "[8]; 45 μg q4dx4, 90 μg weekly×2, single 180 μg (not shown)", "result": "similarly low levels of toxicity"}, {"measurement": "tolerability of 4 doses of 45 μg given in 2 weeks", "setting": "[8]; 4 doses of 45 μg in 2 weeks", "result": "tolerated by all animals"}, {"measurement": "MTD", "setting": "[8]; single bolus protein dose, nude mice bearing NCI-N87", "result": 9, "unit": "mg/kg"}, {"measurement": "lethal single i.v. dose", "setting": "[8]; single i.v. dose, antibody amount [~10 μg of P2PDox]", "result": "≥ 300", "unit": "µg"}, {"measurement": "cytotoxicity", "setting": "[9]", "result": "cytotoxic"}]}
